Results reported in PubChem BioAssay (NCI).
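Following 48 hours of exposure in 96-well plates, responses at five concentrations were used to interpolate endpoints linearly. TGI: total growth inhibition.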

How the values were obtained:
Assay in all cases: NCI tumour cell line growth inhibition, 48 h
HOP-62 NSCLC = system: HOP-62 NSCLC
HCT-116 colon = system: HCT-116 colon
HS 578T breast = system: HS 578T breast
IGROV1 ovarian = system: IGROV1 ovarian
OVCAR-8 ovarian = system: OVCAR-8 ovarian
U251 CNS = system: U251 CNS
NCI-H23 lung = system: NCI-H23 lung
SK-MEL-28 melanoma = system: SK-MEL-28 melanoma
HCT-15 colon = system: HCT-15 colon
NCI-H460 lung = system: NCI-H460 lung

Compound	TGI (HOP-62 NSCLC)	TGI (HCT-116 colon)	TGI (HS 578T breast)	TGI (IGROV1 ovarian)	TGI (OVCAR-8 ovarian)	TGI (U251 CNS)	TGI (NCI-H23 lung)	TGI (SK-MEL-28 melanoma)	TGI (HCT-15 colon)	TGI (NCI-H460 lung)
CS(=O)(=O)c1nc(-c2cc3c(c(S(C)(=O)=O)n2)CCCC3)cc2c1CCCC2	> 57.7 µM	> 100 µM	> 33 µM	> 43.5 µM	> 69.5 µM	> 100 µM	> 100 µM	> 100 µM	> 100 µM	–
CN(C)CCn1c(=O)c2ccc3c4c(nn3CCN(C)C)c3cc(N)ccc3n(c1=O)c24	0.201 µM	0.0716 µM	1.03 µM	4.45 µM	0.454 µM	3.39 µM	0.021 µM	0.394 µM	0.222 µM	0.0904 µM
OCCOCn1cc(Cn2ncc3c(SCc4ccccc4)ncnc32)nn1	> 100 µM	> 100 µM	> 100 µM	> 100 µM	> 100 µM	> 100 µM	> 100 µM	> 100 µM	> 100 µM	> 100 µM
O=C(O)C(CSC(c1ccccc1)(c1ccccc1)c1ccccc1)N=Cc1cccs1 (stereo unspecified)	> 100 µM	> 56.2 µM	> 34.2 µM	> 100 µM	42.3 µM	> 62.4 µM	43.3 µM	> 100 µM	> 100 µM	> 48.9 µM
N#CC(c1ccccc1)N1CCCN(C(C#N)c2ccccc2)C1c1ccccc1O (stereo unspecified)	> 100 µM	> 100 µM	> 100 µM	> 100 µM	> 100 µM	> 100 µM	> 100 µM	> 100 µM	> 100 µM	> 100 µM
Nc1ccccc1N/C(=C\C(=O)C(Cl)(Cl)Cl)c1ccccc1	75.1 µM	38.2 µM	> 100 µM	71 µM	> 100 µM	32 µM	> 100 µM	> 100 µM	80.4 µM	69.4 µM
O=[N+]([O-])c1ccc2c(c1)c(N=NC(=S)NC1CCCCC1)c(O)n2CN1CCOCC1	23.8 µM	16.2 µM	45.8 µM	15.4 µM	17.4 µM	17.3 µM	21.4 µM	25.6 µM	15.6 µM	13.5 µM
CC1(C)CCC2(C(=O)OC3OC(CO)C(O)C(O)C3O)CCC3(C)C(=CCC4C5(C)CCC(OC6OC(CO)C(O)C(O)C6O)C(C)(C)C5CCC43C)C2C1 (stereo unspecified)	> 25 µM	> 25 µM	> 25 µM	> 25 µM	> 25 µM	10.4 µM	> 25 µM	> 25 µM	> 25 µM	> 25 µM
CCOC(=O)C1CCn2c(nc3c2c(=O)n(C)c(=O)n3C)S1 (stereo unspecified)	> 100 µM	> 100 µM	–	> 100 µM	> 100 µM	> 100 µM	> 100 µM	–	> 100 µM	> 100 µM
COc1c2c(cc3c1C(O)N1CC[C@]34[C@H]3O[C@H]3[C@H](OC)C[C@@H]14)OCO2 (stereo partly specified)	> 100 µM	> 100 µM	> 100 µM	> 100 µM	> 100 µM	> 100 µM	> 100 µM	> 100 µM	> 100 µM	> 100 µM
CCOC(=O)/C(=C\NCC(OCC)OCC)c1nc2ccccc2[nH]1	> 100 µM	> 100 µM	> 100 µM	> 100 µM	> 100 µM	> 100 µM	56.4 µM	77 µM	51.8 µM	71.5 µM
COC(=O)C1C(O)CCC2CN3CCc4c([nH]c5cccc(OC)c45)C3CC21 (stereo unspecified)	> 100 µM	> 100 µM	> 100 µM	> 100 µM	> 100 µM	> 100 µM	> 100 µM	> 100 µM	> 100 µM	> 100 µM
O=[n+]1c2c(n([O-])c3ccccc31)-c1cccc3cccc-2c13	–	> 100 µM	> 100 µM	–	> 100 µM	> 100 µM	> 100 µM	–	> 100 µM	> 100 µM
Nc1nc(N)c2c(n1)NC(c1ccccc1)CC(/C=C/c1ccc(Cl)cc1)=N2 (stereo unspecified)	34 µM	4.76 µM	9.94 µM	7.67 µM	37.2 µM	> 100 µM	16.1 µM	28.1 µM	23.3 µM	18 µM
[O-][N+](CCO)(CCO)c1ncnc2nc[nH]c12	> 100 µM	> 100 µM	> 100 µM	> 100 µM	> 100 µM	> 100 µM	> 100 µM	> 100 µM	> 100 µM	–
CCC(C)C1NC(=O)C2CCCN2C(=O)C(CC2CO2)OC(=O)CCNC(=O)C(C)N(C)C(=O)C(C(C)C)N(C)C1=O (stereo unspecified)	–	–	> 100 µM	> 100 µM	> 100 µM	> 100 µM	> 100 µM	> 100 µM	> 100 µM	> 100 µM
COc1ccc(N=c2ssc(C(=S)Nc3ccc(OC)cc3)c2S)cc1	> 100 µM	> 100 µM	> 100 µM	> 100 µM	> 100 µM	> 100 µM	> 100 µM	> 100 µM	> 100 µM	> 100 µM
CN(CCCNC(=O)c1cn(C)c2c1ccc1cc(Cl)c(Cl)cc12)CCCNC(=O)c1cn(C)c2c1ccc1cc(Cl)c(Cl)cc12	> 57.7 µM	31.2 µM	27.6 µM	25.5 µM	31.2 µM	11.4 µM	31.4 µM	42 µM	27.5 µM	29.8 µM
